Data on two compounds can be found in patent EP2022796A1, “Amorphous ciclesonide” (Nycomed GmbH, priority 2007, dated 2009).

Values after ≈ are worked out from the molar mass of the structure shown.

Assay type in all cases: physicochemical
Data set [1] can be described thus: Dissolution experiments in water (dissolution kinetics). To be noted: 37°C. The method, then:
For each timepoint (5 min, 10 min, 20 min, 35 min, 60 min and 1440 min) of the dissolution experiment, three samples each of X-ray amorphous and crystalline ciclesonide were prepared by weighing a defined amount of in each case about 15 mg into a 250 ml conical wide-necked Erlenmeyer flask and stirring (850 rpm, glass coated magnetic stir bar, having a length of 2.4 cm and a diameter of 0.59 cm) the samples at 37°C in 100 ml water (Millipore quality, ELIX 3, Gradient A 10, pH 5.92 - 6.00). The moment of the addition of water was defined as to. The tempering of the samples was performed using an air bath. After the desired stirring time, the complete samples were filtered through a 0.2 µm membrane filter (Schleicher & Schuell, RC 0.2 µm Spartan 30/A) and concentrated on a Sep-Pak cartridge (Waters Sep-Pak cartridge C18, WAT051910). The cartridge was then eluted with ethanol (gradient grade, Merck). The ciclesonide in the ethanol solution was then quantified by HPLC (LaChrom®-HPLC System Series 7000, column: Zorbax SB phenyl, eluent: water/ethanol 38 % : 62 % (v/v) isocratic, column temperature: 60°C, injection volume: 50 µL, UV-detection at 243 nm) against an external standard.

Data set [2] can be described thus: Saturation solubility experiments in water. To be noted: 37°C, 30 min ultrasonic treatment then stirred 24 hours; for saturation solubility: 1440 min. The method, then: Defined amounts of in each case about 14 to 25 mg of X-ray amorphous or crystalline ciclesonide were weighed into a conical Erlenmeyer flask equipped with a rubber stopper (n = 3). 100 ml of water (Millipore quality, ELIX 3, Gradient A 10, pH 5.92 - 6.00) were added and 30 minutes of ultrasonic treatment was applied to the samples. Afterwards the samples were stirred in the dark for 24 hours at 37°C in a water bath. After the desired stirring time, each sample was filtered through a 0.2 µm membrane filter (Schleicher & Schuell, RC 0.2 µm Spartan 30/A) and concentrated on a Sep-Pak cartridge (Waters Sep-Pak cartridge C18, WAT051910). Then the cartridge was eluted with ethanol (gradient grade, Merck). The ciclesonide in the ethanol solution was then quantified by HPLC (LaChrom®-HPLC System Series 7000, column: Zorbax SB phenyl, eluent: water/ethanol 38 % : 62 % (v/v) isocratic, column temperature: 60°C, injection volume: 50 µL, UV-detection at 243 nm) against an external standard.

The nature of data set [3]: Stability under elevated pressure (recrystallization). The conditions noted are these: pressure of up to 2.500 for 5 min. The source says: Such a stability against pressure is particularly desirable when a pharmaceutical agent is used for preparation of solid pharmaceutical compositions such as tablets or granules.
A short description of the next data set: Hygroscopicity.
Setting [4] is: listed as crystalline form of ciclesonide.

For the compound `CC(C)C(=O)OCC(=O)C12OC(C3CCCCC3)OC1CC1C3CCC4=CC(=O)C=CC4(C)C3C(O)CC12C` (stereo not drawn) [amorphous ciclesonide, 16,17-[(Cyclohexyl-methylene)bis(oxy)]-11-hydroxy-21-(2-methyl-1-oxopropoxy)-pregna-1,4-diene-3,20-dione[11β,16α]], the “concentration of dissolved ingredient within 5 minutes” value in data set [1] (5 minutes) was found to be 290 ng/mL. The “concentration of dissolved ingredient after 20 minutes” value in data set [1] (20 minutes) is 340 ng/mL. The “concentration of dissolved ingredient relative to crystalline ciclesonide after 1 hour” value in data set [1] (after 1 hour, amorphous versus crystalline) is listed as “about sevenfold higher”. In addition, the “concentration of dissolved ciclesonide after 24 hours” value in data set [1] was 105 ng/mL. The saturation solubility in data set [2] is 0.0916 ± 0.0052 µg/mL. For the same compound, in data set [3], the “stability under pressure (signs of recrystallization)” value was “did not show any signs of recrystallization”. In addition, the hygroscopicity result in the data set “Hygroscopicity” is recorded as “not hygroscopic”.

As to `CC(C)C(=O)OCC(=O)C12OC(C3CCCCC3)OC1CC1C3CCC4=CC(=O)C=CC4(C)C3C(O)CC12C` (stereo not drawn) [crystalline ciclesonide, 16,17-[(Cyclohexyl-methylene)bis(oxy)]-11-hydroxy-21-(2-methyl-1-oxopropoxy)-pregna-1,4-diene-3,20-dione[11β,16α], reference compound], in data set [1] (after 1 hour), the solubility (as a rule, the dissolved amount per volume that the medium holds) at 1 h is ~0.05 µg/mL (≈ 0.0925 µM). For the same compound, the “concentration of dissolved ciclesonide after 24 hours” value in data set [1] is 64 ng/mL; in data set [1] (setting [4]), “about 64 µg/l”. In data set [2], this compound showed a solubility at 24 h of 0.091 µg/mL (≈ 0.168 µM). Also, the saturation solubility was 0.0901 ± 0.0022 µg/mL in data set [2] and “about 91 µg/l” in data set [2] (setting [4]).
